Reference: US9307765B2, “Selective weed control using D-napropamide” (UPL Limited, priority 2013, dated 2016)
Values joined by “and” are separate entries in the source; they are usually repeats but may differ in a detail not shown here. Equal values may be shown once.

How the values were obtained:
Assay type in all cases: in vivo
Senecio vulgaris [1] = test: Field trial in winter oilseed rape, pre-emergence, % control
Protocol: (§1) Field trials were conducted on various moncotyledonous weeds and dicotyledonous weeds and the effect of D-isomer of Napropamide was studied to understand the selective and effective control of dicotyledonous weeds over monocotyledonous weeds. The effect of D-isomer of Napropamide in comparison to racemic napropramide and untreated was studied, which is concluded hereinbelow:
(§2) Several small plot replicated trials were carried out to evaluate and/or compare the efficacy of D-Napropamide against a range of indicated annual broadleaved and grass weed species in the indicated crops. No problems were encountered during mixing or application of any of the product formulations or tank mixtures under test.
(§3) In each of the reported data, the homogeneity of variance was tested by Bartlett's test. Wherever this test indicated no homogeneity of variance, the transformed values were used for analysis of variance. Assessment data was then analyzed using a two-way analysis of variance (ANOVA) on untransformed and transformed data. The probability of no significant differences occurring between treatment means was calculated as the F probability value (p(F)). A mean comparison test was only performed and reported when the treatment of F that was calculated during analysis of variance was significant at the observed significance level specified for the mean comparison test. Where the data was transformed, treatment means in the reports were presented in their detransformed state, with the appropriate letter test and mean descriptions (LSD and standard deviation) derived from the transformed ANOVA.
(§4) Trials were conducted to evaluate the selectivity and efficacy of D-isomer of Napropamide when applied pre-emergence to oilseed rape crop. The % control of weed was assessed at regular intervals.

Aperaspica-venti = test: as above
Protocol: as §1, §2, §3, §4

Cirsium arvense = test: as above
Protocol: as §1, §2, §3, §4

Fallopia convolvulus = test: as above
Protocol: as §1, §2, §3, §4

Veronica persica = test: as above
Protocol: as §1, §2, §3, §4

Digitaria sanguinalis = test: Plot trial, % control of Digitaria sanguinalis; conditions: 9 L/Ha of 450 g/L formulation
Protocol: as §1, §2
as §3, with “ANOVA. […]” for “ANOVA.”

Ranunculus repens = test: Field trial on strawberries, pre-emergence, visual % control
Protocol: as §1, §2, §3
Trial was carried out on strawberries to evaluate the efficacy and selectivity of D-Napropamide and equivalent rate of Devrinol (Napropramide) applied pre-emergence. […] The percentage control of D-isomer of Napropamide and Devrinol was assessed in comparison to the untreated after 224 days after application.

Matricaria sp. = test: Field trial in winter oilseed rape, pre-emergence, % control and ground cover; conditions: 450 g/L @ 2.8 L/Ha
Protocol: as §1, §2, §3, §4

Senecio vulgaris [2] = test: Field trial on strawberries, pre-emergence, visual % control
Protocol: as §1, §2, §3
(§5) Trial was carried out on strawberries to evaluate the efficacy and selectivity of D-Napropamide and equivalent rate of Devrinol (Napropramide) applied pre-emergence. […]

Papaver rhoeas = test: as above
Protocol: as §1, §2, §3, §5

Stellaria media = test: Pre-emergence glasshouse pot study, seedling emergence and growth (OECD guideline); conditions: for EC50 based on the final fresh weights: Stellaria media (dicot), 21 day assessment, probit; for Mean Final Foliar Fresh Weights Expressed as Percentage of Untreated Controls / Mean Final Foliar Fresh Weights: Stellaria media; for Mean Final Foliar Fresh Weights: 21 days after 50% emergence, untreated 1.44
Protocol: (§6) A study was carried out to determine the relative biological activity of the D and L isomers of Napropamide when applied pre-emergence to one monocotyledon and one dicotyledon species. Napropamide, containing 450 grammes active substance per liter (g a.s./L) formulated as a suspension concentrate and the D-isomer of Napropamide (1000 g a.s./L) were applied at a range of concentrations from 0.1575 to 1.26 kilograms of active substance per hectare (kg a.s/Ha).
(§7) EC50 values in kg a.s./Ha were calculated from the dose response data using final foliar fresh weight data for each species and was used to determine the relative biological activity of the D and L isomers of Napropamide. The methodology was based on the OECD guideline […], according to the revision of July 2006 for seedling emergence and growth. The study was conducted to GLP standards.
(§8) Seeds were sown directly into non-porous plastic pots containing the following mix of soil: 10 L of sterile loam+4 L of coarse grit (washed quartztite, nominal 4 mm)+10 L of sand. This soil mix was characterized as a sandy loam with an organic carbon content of 1.5% and pH of 7.2. Details of the plant species, number of seeds per pot and pot size are shown below. All seeds were sown 1-2 cm deep.
(§9) The highest concentration of Napropamide was prepared by measuring a calculated volume by weight and diluting with tap water to the full required volume. Lower concentrations were prepared by serial dilution with water. D-Napropamide was prepared by dissolving the calculated weight in acetone and adding water to give the full required volume in 50:50 acetone+water. Lower concentrations were prepared by serial dilution with 50:50 acetone+water. D-Napropamide dissolved completely.
(§10) The sprayer was calibrated within 24 hours prior to application by weight of 15 applications of water to six 86 mm ID petri dishes. The total weight of water over a known area enabled a simple calculation giving the volume rate to be made. The volume rate achieved was within the range specified in the study plan (200 L/Ha±10%).
(§11) Replication was 5 pots per treatment for each plant species. After application, pots were placed on the bench in glasshouse in randomized blocks. Plants were assessed for emergence, mortality and visual injury (expressed as a percentage of the untreated control: 0%=no injury, 1-39%=slight injury, 40-69%=moderate injury, 70-99%=severe injury and 100%=all plants dead) at 14 and 21 days after 50% emergence in the untreated controls. Fresh weights (biomass above soil level) were also recorded 21 days after 50% emergence in the untreated controls. Plants were fully turgid at the time of harvest.
(§12) Assessment data was recorded on pro-forma sheets and entered into Gylling ARM 7 software. EC50 values were calculated using audited means data from the final assessments (21 day). Gylling ARM 7.0 software used a simple probit—maximum likelihood estimation method with 99% confidence level. The EC50 values generated were then visually checked against the means data table to verify they appeared correct.

Poa annua = test: as above; conditions: for Mean Final Foliar Fresh Weights Expressed as Percentage of Untreated Controls / Mean Final Foliar Fresh Weights: Poa annua; for Mean Final Foliar Fresh Weights: 21 days after 50% emergence, untreated 0.90
Protocol: as §6, §7, §8, §9, §10, §11, §12

CCN(CC)C(=O)C(C)Oc1cccc2ccccc12 (racemic) [Napropamide, N,N-diethyl-2-(α-naphthoxy)propionamide]
Percentage Control at 63 DAA (Senecio vulgaris [1]; 450 g/L @ 1.6 L/Ha): 36.96% | Percentage Control at 63 DAA (Senecio vulgaris [1]; 450 g/L @ 2.8 L/Ha): 4.65% | Percentage Control at 63 DAA (Aperaspica-venti; 450 g/L @ 1.6 L/Ha): 40.00% | Percentage Control at 63 DAA (Aperaspica-venti; 450 g/L @ 2.8 L/Ha): 76.25% and 67.50% | Mean Percentage Control (Cirsium arvense; 450 g/L @ 2.8 L/Ha): 20.00% | Conclusion: control of the weed at equivalent dosage (Cirsium arvense; Cirsium arvense, dicot): negligible control | Percentage Control at 63 DAA (Fallopia convolvulus; 450 g/L @ 1.6 L/Ha): 30.00% | Percentage Control at 63 DAA (Fallopia convolvulus; 450 g/L @ 2.8 L/Ha): 0.00% | Percentage Control at 63 DAA (Veronica persica; 450 g/L @ 1.6 L/Ha): 75.00% | Percentage Control at 63 DAA (Veronica persica; 450 g/L @ 2.8 L/Ha): 75.00% | % Control (Digitaria sanguinalis; 16 DAA): 12.50% | % Control (Digitaria sanguinalis; 33 DAA): 15.00% | Percentage Control at 224 DAA (Ranunculus repens; 5 L/Ha of 450 g/L formulation): 33.3% | Percentage Control at 224 DAA (Ranunculus repens; 7 L/Ha of 450 g/L formulation): 66.7% | Percentage Control at 224 DAA (Ranunculus repens; 14 L/Ha of 450 g/L formulation): 83.3% | Percentage ground cover %, value in brackets (untreated 0.0%) (Matricaria sp.): (52.8%) | Percentage Control at 49 DAA (Matricaria sp.; oilseed rape): 61.25% | Percentage ground cover % (Matricaria sp.; untreated 4.50): 2.13% | Percentage Control at 70 DAA (Senecio vulgaris [2]; 5 L/Ha of 450 g/L formulation): 37.5% | Percentage Control at 70 DAA (Senecio vulgaris [2]; 7 L/Ha of 450 g/L formulation): 25.0% | Percentage Control at 70 DAA (Senecio vulgaris [2]; 14 L/Ha of 450 g/L formulation): 12.5% | Percentage Control at 70 DAA (Papaver rhoeas; 5 L/Ha of 450 g/L formulation): 62.5% | Percentage Control at 70 DAA (Papaver rhoeas; 7 L/Ha of 450 g/L formulation): 81.7% | Percentage Control at 70 DAA (Papaver rhoeas; 14 L/Ha of 450 g/L formulation): 82.5% | EC50 based on the final fresh weights (Stellaria media): 0.22 kg/Ha | Mean Final Foliar Fresh Weights Expressed as Percentage of Untreated Controls (Stellaria media; rate 0.1575 kg/Ha): 70% | Mean Final Foliar Fresh Weights (Stellaria media; rate 0.315 kg/Ha pre-emergence): 0.3 g | Mean Final Foliar Fresh Weights (Stellaria media; rate 0.63 kg/Ha pre-emergence): 0.328 g | Mean Final Foliar Fresh Weights Expressed as Percentage of Untreated Controls (Stellaria media; rate 1.26 kg/Ha): 16% | EC50 based on the final fresh weights (Poa annua; Poa annua (monocot), 21 day assessment, probit): 0.72 kg/Ha | Mean Final Foliar Fresh Weights Expressed as Percentage of Untreated Controls (Poa annua; rate 0.1575 kg/Ha): 100% | Mean Final Foliar Fresh Weights (Poa annua; rate 0.315 kg/Ha pre-emergence): 0.57 g | Mean Final Foliar Fresh Weights (Poa annua; rate 0.63 kg/Ha pre-emergence): 0.98 g | Mean Final Foliar Fresh Weights Expressed as Percentage of Untreated Controls (Poa annua; rate 1.26 kg/Ha): 23%

CCN(CC)C(=O)[C@H](C)Oc1cccc2ccccc12 [L-Napropamide, reference compound]
EC50 based on the final fresh weights (Stellaria media): 1.26 kg/Ha
